{"source": "patent US20120245229A1", "about": "“METHOD FOR TREATING NEUROPATHIC PAIN” (priority 2009, published 2012)", "key": {"[1]": {"test_system": "complete Freund's adjuvant (CFA)-evoked heat hyperalgesia", "assay": "CFA-evoked heat hyperalgesia (paw withdrawal latency, Hargreaves)", "assay_type": "in vivo, mice", "details": "intrathecal, post-CFA day 3; DHA and EPA 10 μg", "procedure": "(§1) Animals and pain models. Adult CD1 mice (male, 25-32 g) were used for most experiments. Knockout mice were used lacking TNFR1/II (Tnfrsf1a/1b^−/−) and TRPV1 (Trpv1^−/−) and C57BL/6 wild-type control mice, all from Jackson, for some experiments. All animal procedures performed in this study were approved by the Harvard Medical Area Standing Committee on Animals. 20 μl of diluted formalin (5%), carrageenan (CRG, 1%), or complete Freund's adjuvant (CFA) were injected into the plantar surface of a hindpaw to produce acute, persistent, or chronic inflammatory pain, respectively. Postoperative pain was also produced through hindpaw incision^36 and neuropathic pain by ligation of the spinal nerve^37.\nReagents and administration. RvE1 and RvD1 were suspended in 1% or 10% ethanol as vehicle for investigating acute (<1 h) and persistent (1-6 h) effects of resolvins on inflammatory pain. The reagents (10 μl) were delivered to the cerebral spinal fluid via intrathecal injection made by a spinal cord puncture between the L5 and L6 level with a 30G needle^38.\n(§2) Behavioral analysis. Mice were habituated in the testing environment for two days and performed behavioral testing in a blinded manner. Formalin-evoked spontaneous inflammatory pain was assessed by measuring duration (seconds) animals spent on licking/flinching the affected paws every 5 min for 45 min. Capsaicin-induced spontaneous pain was aslo assessed for 10 min. For testing mechanical sensitivity, mice were put in boxes on an elevated metal mesh floor and stimulated hindpaw with a series of von Frey hairs with logarithmically incrementing stiffness (0.02-2.56 grams, Stoelting), presented perpendicular to the plantar surface. It was determined the 50% paw withdrawal threshold using Dixon's up-down method^40. For testing heat sensitivity, mice were placed in plastic boxes and tested heat sensitivity using Hargreaves radiant heat apparatus (IITC Life Science Inc.). The basal paw withdrawal latency was adjusted to 9-12 seconds and set a cut-off of 20 seconds to prevent tissue damage. The percent maximal possible antinociceptive effect (% M.P.E) was calculated using the equation % M.P.E.=[(PL−BL2)/(BL1−BL2)]×100. BL1, baseline latency before inflammation; BL2, baseline latency after inflammation but before drug injection; PL, latency post drug injection.\nIntrathecal injection. To avoid systemic effects of drugs and target spinal mechanisms, drugs were delivered into cerebral spinal fluid (CSF) space around lumbosacral spinal cord via intrathecal (i.t.) administration. Spinal cord puncture was made with a 30G needle between the L5 and L6 level to deliver the reagents (10 μl) to the cerebral spinal fluid (Hylden and Wilcox, 1980)^5. […] In addition to spinal cord cells, intrathecal drug administration also affects DRG cells^6,7.\nThe anti-hyperalgesic efficacy of RvE1 prepared in 1% and 10% ethanol was compared on post-CFA day 3."}, "[2]": {"test_system": "carrageenan (CRG)-elicited heat hyperalgesia", "assay": "Carrageenan (CRG)-elicited heat hyperalgesia", "assay_type": "in vivo, mice", "details": "intraplantar pretreatment, 20 ng, 10 min before carrageenan", "procedure": "as §1, §2\nResolvins were also used for intraplantar injection. […]"}, "[3]": {"test_system": "paw incision-induced postoperative pain", "assay": "Postoperative pain model induced by hindpaw incision", "assay_type": "in vivo, mice", "details": "intraplantar 20 ng, 10 min before paw incision", "procedure": "as §1\nBehavioral analysis. Mice were habituated in the testing environment for two days and performed behavioral testing in a blinded manner. Formalin-evoked spontaneous inflammatory pain was assessed by measuring duration (seconds) animals spent on licking/flinching the affected paws every 5 min for 45 min. Capsaicin-induced spontaneous pain was aslo assessed for 10 min. […] It was determined the 50% paw withdrawal threshold using Dixon's up-down method^40. […] The percent maximal possible antinociceptive effect (% M.P.E) was calculated using the equation % M.P.E.=[(PL−BL2)/(BL1−BL2)]×100. […]"}, "[4]": {"test_system": "inflammatory pain", "assay": "Inflammatory pain models induced by formalin or CFA (summary statements)", "assay_type": "in vivo, mouse", "procedure": "as §1, §2"}}}
{"smiles": "CC/C=C\\C[C@H](O)/C=C/C=C\\C=C\\C=C\\[C@@H](O)[C@@H](O)C/C=C\\CCC(=O)O", "note": "[RvD1]", "values": [{"measurement": "CFA-evoked heat hyperalgesia", "setting": "[1]", "value": "Attenuation"}, {"measurement": "CRG-evoked heat hyperalgesia", "setting": "[2]", "value": "substantially attenuated"}, {"measurement": "paw incision-induced mechanical allodynia", "setting": "[3]", "value": "attenuates the development of paw incision-induced mechanical allodynia"}, {"measurement": "pain-like behaviors", "setting": "[4]", "value": "potently inhibit"}]}
